# Results: ChEMBL document CHEMBL1130736, “Syntheses of new modified Phe-Pro peptides. Use of proline replacements in potential HIV inhibitors” (Bioorg Med Chem Lett, 1998)
# Peptide text beside a SMILES is read from it. * marks the point of attachment. Boc = CC(C)(C)OC(=O)*
# How the values were obtained:
# [1] = Partition coefficient (logP); type: physicochemical; details: octanol/water
# MT4 [2] = experiment: Concentration required to inhibit syncytia formation by 50% in HIV infected HIV-BRU MT-4 cells; type: functional, cell-based, Homo sapiens
# MT4 [3] = experiment: Concentration required to cause 50% death of uninfected MT-4 cells; type: functional; details: Homo sapiens
# [4] = Homo sapiens, MT4, read-out: IC50
logP [1],Structure (SMILES),IC50 (MT4 [2]; mt4),CC50 (MT4 [3]),IC50 (MT4 [2]; [4])
3.17,O=C1CCN(C(=O)[C@H](Cc2ccccc2)NC(=O)c2ccccc2)C1,Not Active,50 µM,–
3.15,CC(C)(C)OC(=O)N[C@@H](Cc1ccccc1)C(=O)N1CCC(O)C1 (stereo not given in full),–,100 µM,50 µM
3.44,O=C1CCN(C(=O)[C@H](Cc2ccccc2)NC(=O)c2ccc3ccccc3n2)C1,–,> 100 µM,10 µM
4.86,O=C1CCN(C(=O)[C@H](Cc2ccccc2)NC(=O)N(c2ccccc2)c2ccccc2)C1,Not Active,> 100 µM,–
2.31,O=C1CCN(C(=O)[C@H](Cc2ccccc2)NC(=O)c2cccnc2)C1,–,> 100 µM,0.1 µM
5.38,CCCCCCCCOC(=O)N[C@@H](Cc1ccccc1)C(=O)N1CCC(=O)C1,Not Active,50 µM,–
3.97,CC(C)(C)OC(=O)N[C@@H](Cc1ccccc1)C(=O)N1CCC(=O)C1,–,100 µM,10 µM
3.33,CN(C(=O)N[C@@H](Cc1ccccc1)C(=O)N1CCC(=O)C1)c1ccccc1,Not Active,50 µM,–
3.97,O=C1CCN(C(=O)[C@H](Cc2ccccc2)NC(=O)OCc2ccccc2)C1,–,50 µM,1 µM
3.96,CC(C)(C)OC(=O)N[C@@H](Cc1ccccc1)C(=O)N1CCC[C@H]1C(=O)O (Boc-Phe-Pro-OH),Not Active,> 100 µM,–
